In the supplement of paper PMC10307832:

What was measured:
Assay in all cases: relative viability (nuclei count vs DMSO), 5 days (fraction); higher = more cells survive
NCI-H661 = test system: NCI-H661
Procedure, shortened: (§1)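 Values are medians from duplicate plates. Each reflects relative viability, defined as the nuclei count of treated wells over that of vehicle wells. Lung cancer cell lines in 1536-well plates were pin-tool dosed one day after seeding with one drug alone or with a fixed anchor-drug dose plus five library-drug doses (not always all listed) in √10 steps, then fixed, stained and imaged at 4× after 5 days.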

SW 1573 = test system: SW 1573
Procedure, shortened: as §1

NCI-H2009 = test system: NCI-H2009
Procedure, shortened: as §1

NCI-H2126 = test system: NCI-H2126
Procedure, shortened: as §1

NCI-H647 = test system: NCI-H647
Procedure, shortened: as §1

H3255 = test system: H3255
Procedure, shortened: as §1

EMC-BAC-2 = test system: EMC-BAC-2
Procedure, shortened: as §1

LXF-289 = test system: LXF-289
Procedure, shortened: as §1

PC-14 = test system: PC-14
Procedure, shortened: as §1

EPLC-272H = test system: EPLC-272H
Procedure, shortened: as §1

HOP-62 = test system: HOP-62
Procedure, shortened: as §1

LCLC-97TM1 = test system: LCLC-97TM1
Procedure, shortened: as §1

NCI-H1993 = test system: NCI-H1993
Procedure, shortened: as §1

NCI-H322M = test system: NCI-H322M
Procedure, shortened: as §1

NCI-H1915 = test system: NCI-H1915
Procedure, shortened: as §1

SK-LU-1 = test system: SK-LU-1
Procedure, shortened: as §1

NCI-H727 = test system: NCI-H727
Procedure, shortened: as §1

NCI-H2347 = test system: NCI-H2347
Procedure, shortened: as §1

NCI-H2085 = test system: NCI-H2085
Procedure, shortened: as §1

NCI-H2023 = test system: NCI-H2023
Procedure, shortened: as §1

NCI-H1734 = test system: NCI-H1734
Procedure, shortened: as §1

With `CCN(CC)CCCCNc1ncc2cc(-c3cc(OC)cc(OC)c3)c(NC(=O)NC(C)(C)C)nc2n1` + O=C(c1cc(Cc2n[nH]c(=O)c3ccccc23)ccc1F)N1CCN(C(=O)C2CC2)CC1 [Olaparib] (partner 8 µM) the relative viability (NCI-H661; first compound 0.01 µM) was 0.702, the relative viability (NCI-H661; first compound 0.03162 µM) was 0.713 and the relative viability (NCI-H661; first compound 0.1 µM) was 0.788. It also gave a relative viability (NCI-H661; first compound 0.3162 µM) of 0.822, a relative viability (NCI-H661; first compound 1 µM) of 0.739 and a relative viability (SW 1573; first compound 0.01 µM) of 0.513. It also gave a relative viability (SW 1573; first compound 0.03162 µM) of 0.551, a relative viability (SW 1573; first compound 0.1 µM) of 0.613 and a relative viability (SW 1573; first compound 0.3162 µM) of 0.522. It also gave a relative viability (SW 1573; first compound 1 µM) of 0.421, a relative viability (NCI-H2009; first compound 0.01 µM) of 0.828 and a relative viability (NCI-H2009; first compound 0.03162 µM) of 0.696. For the same compound, the relative viability (NCI-H2009; first compound 0.1 µM) was 0.699, the relative viability (NCI-H2009; first compound 0.3162 µM) was 0.75 and the relative viability (NCI-H2009; first compound 1 µM) was 0.7. For the same compound, the relative viability (NCI-H2126; first compound 0.01 µM) was 1.03, the relative viability (NCI-H2126; first compound 0.03162 µM) was 0.948 and the relative viability (NCI-H2126; first compound 0.1 µM) was 0.976. It also gave a relative viability (NCI-H2126; first compound 0.3162 µM) of 0.984, a relative viability (NCI-H2126; first compound 1 µM) of 0.899 and a relative viability (NCI-H647; first compound 0.01 µM) of 0.476. It also gave a relative viability (NCI-H647; first compound 0.03162 µM) of 0.732, a relative viability (NCI-H647; first compound 0.1 µM) of 0.674 and a relative viability (NCI-H647; first compound 0.3162 µM) of 0.563. The relative viability (NCI-H647; first compound 1 µM) was 0.393, the relative viability (H3255; first compound 0.01 µM) was 0.567 and the relative viability (H3255; first compound 0.03162 µM) was 0.52. For the same compound, the relative viability (H3255; first compound 0.1 µM) was 0.581, the relative viability (H3255; first compound 0.3162 µM) was 0.575 and the relative viability (H3255; first compound 1 µM) was 0.558. For the same compound, the relative viability (EMC-BAC-2; first compound 0.03162 µM) was 0.485, the relative viability (EMC-BAC-2; first compound 0.1 µM) was 0.56 and the relative viability (EMC-BAC-2; first compound 0.3162 µM) was 0.507. For the same compound, the relative viability (EMC-BAC-2; first compound 1 µM) was 0.525, the relative viability (LXF-289; first compound 0.01 µM) was 1.14 and the relative viability (LXF-289; first compound 0.03162 µM) was 1.11. The relative viability (LXF-289; first compound 0.1 µM) was 1.25, the relative viability (LXF-289; first compound 0.3162 µM) was 1.1 and the relative viability (LXF-289; first compound 1 µM) was 1.08. For the same compound, the relative viability (PC-14; first compound 0.01 µM) was 0.318, the relative viability (PC-14; first compound 0.03162 µM) was 0.341 and the relative viability (PC-14; first compound 0.1 µM) was 0.292. It also gave a relative viability (PC-14; first compound 0.3162 µM) of 0.278, a relative viability (PC-14; first compound 1 µM) of 0.236 and a relative viability (EPLC-272H; first compound 0.01 µM) of 0.884. It also gave a relative viability (EPLC-272H; first compound 0.03162 µM) of 0.701, a relative viability (EPLC-272H; first compound 0.1 µM) of 0.647 and a relative viability (EPLC-272H; first compound 0.3162 µM) of 0.737. The relative viability (EPLC-272H; first compound 1 µM) was 0.488, the relative viability (HOP-62; first compound 0.01 µM) was 0.608 and the relative viability (HOP-62; first compound 0.03162 µM) was 0.523. It also gave a relative viability (HOP-62; first compound 0.1 µM) of 0.416, a relative viability (HOP-62; first compound 0.3162 µM) of 0.823 and a relative viability (HOP-62; first compound 1 µM) of 0.383. The relative viability (LCLC-97TM1; first compound 0.01 µM) was 0.413, the relative viability (LCLC-97TM1; first compound 0.03162 µM) was 0.399 and the relative viability (LCLC-97TM1; first compound 0.1 µM) was 0.479. For the same compound, the relative viability (LCLC-97TM1; first compound 0.3162 µM) was 0.512, the relative viability (LCLC-97TM1; first compound 1 µM) was 0.222 and the relative viability (NCI-H1993; first compound 0.01 µM) was 1.01. For the same compound, the relative viability (NCI-H1993; first compound 0.03162 µM) was 1.01, the relative viability (NCI-H1993; first compound 0.1 µM) was 1.14 and the relative viability (NCI-H1993; first compound 0.3162 µM) was 1.26. It also gave a relative viability (NCI-H1993; first compound 1 µM) of 0.99, a relative viability (NCI-H322M; first compound 0.01 µM) of 0.784 and a relative viability (NCI-H322M; first compound 0.03162 µM) of 0.638. For the same compound, the relative viability (NCI-H322M; first compound 0.1 µM) was 0.745, the relative viability (NCI-H322M; first compound 0.3162 µM) was 0.82 and the relative viability (NCI-H322M; first compound 1 µM) was 0.76. The relative viability (NCI-H1915; first compound 0.01 µM) was 0.234, the relative viability (NCI-H1915; first compound 0.03162 µM) was 0.291 and the relative viability (NCI-H1915; first compound 0.1 µM) was 0.239. The relative viability (NCI-H1915; first compound 0.3162 µM) was 0.245, the relative viability (NCI-H1915; first compound 1 µM) was 0.222 and the relative viability (SK-LU-1; first compound 0.01 µM) was 0.447. For the same compound, the relative viability (SK-LU-1; first compound 0.03162 µM) was 0.404, the relative viability (SK-LU-1; first compound 0.1 µM) was 0.477 and the relative viability (SK-LU-1; first compound 0.3162 µM) was 0.472. For the same compound, the relative viability (SK-LU-1; first compound 1 µM) was 0.433, the relative viability (NCI-H727; first compound 0.01 µM) was 0.674 and the relative viability (NCI-H727; first compound 0.03162 µM) was 0.504. It also gave a relative viability (NCI-H727; first compound 0.1 µM) of 0.671, a relative viability (NCI-H727; first compound 0.3162 µM) of 0.585 and a relative viability (NCI-H727; first compound 1 µM) of 0.741. The relative viability (NCI-H2347; first compound 0.01 µM) was 0.585, the relative viability (NCI-H2347; first compound 0.03162 µM) was 0.579 and the relative viability (NCI-H2347; first compound 0.1 µM) was 0.617. For the same compound, the relative viability (NCI-H2347; first compound 0.3162 µM) was 0.655, the relative viability (NCI-H2347; first compound 1 µM) was 0.602 and the relative viability (NCI-H2085; first compound 0.01 µM) was 0.818. For the same compound, the relative viability (NCI-H2085; first compound 0.03162 µM) was 0.81, the relative viability (NCI-H2085; first compound 0.1 µM) was 0.792 and the relative viability (NCI-H2085; first compound 0.3162 µM) was 0.743. It also gave a relative viability (NCI-H2085; first compound 1 µM) of 0.752, a relative viability (NCI-H2023; first compound 0.01 µM) of 0.521 and a relative viability (NCI-H2023; first compound 0.03162 µM) of 0.512. The relative viability (NCI-H2023; first compound 0.1 µM) was 0.668, the relative viability (NCI-H2023; first compound 0.3162 µM) was 0.55 and the relative viability (NCI-H2023; first compound 1 µM) was 0.449. It also gave a relative viability (NCI-H1734; first compound 0.01 µM) of 0.595, a relative viability (NCI-H1734; first compound 0.03162 µM) of 0.614 and a relative viability (NCI-H1734; first compound 0.1 µM) of 0.746. It also gave a relative viability (NCI-H1734; first compound 0.3162 µM) of 0.638 and a relative viability (NCI-H1734; first compound 1 µM) of 0.569.
